What was measured:
Assay type in all cases: cell-based
NCI-H69 cell line = experiment: Cell viability assay for NCI-H69 cell line (EZ-Cytox); conditions: Homo sapiens, NCI-H69, 120 h; H69 cells, 5 days, 3000 nM to 0.46 nM
Outline: (§1)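 IC50 values are binned (A: <30 nM, B: <50 nM, C: <100 nM, D: <200 nM, E: <400 nM) from EZ-Cytox read-outs. Cells were exposed to compound for 5 days, then shaken 3 min and absorbance taken at […].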

NCI-H526 cell line = experiment: Cell viability assay for NCI-H526 cell line (EZ-Cytox); conditions: Homo sapiens, NCI-H526, 120 h; H526 cells, 5 days, 3000 nM to 0.46 nM
Outline: as §1

PLK1 = target: T1, PLK1 (Homo sapiens, UniProt P53350); experiment: Luciferase assay for PLK1 in HeLa LgBit (Plk1-HiBit KI) cell line; conditions: 300 nM compound, luminescence after 9 hours
T1 construct: endogenous in cells; host or cells: HeLa LgBit (Plk1-HiBit KI): HeLa stably expressing LgBit, with a CRISPR/Cas9 knock-in of HiBit at the endogenous PLK1 locus
T1 sequence (P53350 whole entry): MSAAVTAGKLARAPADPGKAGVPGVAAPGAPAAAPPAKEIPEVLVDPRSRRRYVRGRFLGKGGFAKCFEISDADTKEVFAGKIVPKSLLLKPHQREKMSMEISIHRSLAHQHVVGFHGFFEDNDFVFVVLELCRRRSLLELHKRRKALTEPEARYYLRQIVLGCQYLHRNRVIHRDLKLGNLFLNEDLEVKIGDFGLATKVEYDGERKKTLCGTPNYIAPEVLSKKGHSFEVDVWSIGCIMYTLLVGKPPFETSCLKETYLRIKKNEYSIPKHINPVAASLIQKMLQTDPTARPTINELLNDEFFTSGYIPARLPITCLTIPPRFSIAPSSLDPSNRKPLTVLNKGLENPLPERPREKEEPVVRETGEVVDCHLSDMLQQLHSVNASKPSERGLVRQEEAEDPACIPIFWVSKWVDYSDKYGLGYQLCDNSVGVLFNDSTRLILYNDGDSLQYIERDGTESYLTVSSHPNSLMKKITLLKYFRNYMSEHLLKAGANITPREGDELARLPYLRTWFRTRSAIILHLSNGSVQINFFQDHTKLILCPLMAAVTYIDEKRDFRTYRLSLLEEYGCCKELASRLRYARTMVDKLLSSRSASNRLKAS
Outline: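 Compounds (300 nM) were added with Endurazine to thymidine-synchronised cells (2 mM, 24 h block, then release and 18 h culture), and luminescence at 470-480 nm was followed live. Cells: HeLa stably expressing LgBit, HiBit knocked into native PLK1 C-terminus. Value: luminescence ratio versus DMSO control.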

MRC-5 cell line = experiment: Cell viability assay for MRC-5 cell line (EZ-Cytox); conditions: Homo sapiens, MRC5, 120 h; MRC-5 normal cell line, 5 days, 10000 nM to 1.52 nM; read-out: Activity: IC50 value, cell viability, MRC-5 cell line (Exemplary Compounds)
Description: 4. Cell Viability Assay for MRC-5 Cell Line
(1) Culture of MRC-5 Cell Line
The MRC-5 cell line was purchased from KCLB. Passage of cultured cells was maintained within P15.
(2) Treatment of Compounds of the Present Invention
Then, it was cultured in 37° C. CO2 incubator (Thermo Fisher Scientific) for 5 days.
(3) Cytotoxicity Experiment
CO2 incubator for 4 hours.

Activity: ratio of the luminescence value of compound treatment group to DMSO treatment group (PLK1) | SMILES | IC50 (NCI-H69 cell line) | IC50 (NCI-H526 cell line) | IC50 (MRC-5 cell line)
++ (++: <0.5) | COc1cc(C(=O)NC2CCN(CCN3CCN(c4cc(F)c(NC5CCC(=O)NC5=O)cc4F)CC3)CC2)ccc1Nc1ncc2c(n1)N(C1CCCC1)CC(F)(F)C(=O)N2C (stereo not shown) [Compound 67, 4-((9-cyclopentyl-7,7-difluoro-5-methyl-6-oxo-6,7,8,9-tetrahydro-5H-pyrimido[4,5-b][1,4]diazepin-2-yl)amino)-N-(1-(2-(4-(4-((2,6-dioxopiperidin-3-yl)amino)-2,5-difluorophenyl)piperazin-1-yl)ethyl)piperidin-4-yl)-3-methoxybenzamide] | < 30 nM | < 30 nM | > 10000 nM
++ (++: <0.5) | COc1cc(C(=O)NC2CCN(CCN3CCN(c4cc(F)c(NC5CCC(=O)NC5=O)cc4F)CC3)CC2)ncc1Nc1ncc2c(n1)N(C1CCCC1)CC(F)(F)C(=O)N2C (stereo not shown) [Compound 68, 5-((9-cyclopentyl-7,7-difluoro-5-methyl-6-oxo-6,7,8,9-tetrahydro-5H-pyrimido[4,5-b][1,4]diazepin-2-yl)amino)-N-(1-(2-(4-(4-((2,6-dioxopiperidin-3-yl)amino)-2,5-difluorophenyl)piperazin-1-yl)ethyl)piperidin-4-yl)-4-methoxypicolinamide] | < 100 nM | < 50 nM | > 10000 nM
++ (++: <0.5) | COc1cc(C(=O)NC2CCN(CCN3CCN(c4cc(Cl)c(NC5CCC(=O)NC5=O)cc4F)CC3)CC2)c(F)cc1Nc1ncc2c(n1)N(C(C)C)CC(F)(F)C(=O)N2C (stereo not shown) [Compound 72, N(1-(2-(4-(5-chloro-4-((2,6-dioxopiperidin-3-yl)amino)-2-fluorophenyl)piperazin-1-yl)ethyl)piperidin-4-yl)-4-((7,7-difluoro-9-isopropyl-5-methyl-6-oxo-6,7,8,9-tetrahydro-5H-pyrimido[4,5-b][1,4]diazepin-2-yl)amino)-2-fluoro-5-methoxybenzamide] | < 100 nM | < 50 nM | > 10000 nM
++ (++: <0.5) | COc1cc(C(=O)NC2CCN(CCN3CCN(c4cc(Cl)c(NC5CCC(=O)NC5=O)cc4F)CC3)CC2)c(F)cc1Nc1ncc2c(n1)N(C1CCCC1)CC(F)(F)C(=O)N2C (stereo not shown) [Compound 73, N(1-(2-(4-(5-chloro-4-((2,6-dioxopiperidin-3-yl)amino)-2-fluorophenyl)piperazin-1-yl)ethyl)piperidin-4-yl)-4-((9-cyclopentyl-7,7-difluoro-5-methyl-6-oxo-6,7,8,9-tetrahydro-5H-pyrimido[4,5-b][1,4]diazepin-2-yl)amino)-2-fluoro-5-methoxybenzamide] | < 100 nM | < 50 nM | > 10000 nM

More lines, now with the values behind:

SMILES | Activity: ratio of the luminescence value of compound treatment group to DMSO treatment group (PLK1) | IC50 (NCI-H69 cell line) | IC50 (NCI-H526 cell line) | IC50 (MRC-5 cell line)
COc1cc(C(=O)NN2CCC(CCN3CCN(c4cc(F)c(NC5CCC(=O)NC5=O)cc4F)CC3)CC2)c(F)cc1Nc1ncc2c(n1)N(C(C)C)CC(F)(F)C(=O)N2C (stereo not shown) [Compound 60, 4-((7,7-difluoro-9-isopropyl-5-methyl-6-oxo-6,7,8,9-tetrahydro-5H-pyrimido[4,5-b][1,4]diazepin-2-yl)amino)-N-(4-(2-(4-(4-((2,6-dioxopiperidin-3-yl)amino)-2,5-difluorophenyl)piperazin-1-yl)ethyl)piperidin-1-yl)-2-fluoro-5-methoxybenzamide] | ++ (++: <0.5) | < 50 nM | < 50 nM | > 10000 nM
COc1cc(C(=O)NC2CCN(CCC3CCN(c4cc(F)c(NC5CCC(=O)NC5=O)cc4F)CC3)CC2)ccc1Nc1ncc2c(n1)N(C1CCCC1)CC(F)(F)C(=O)N2C (stereo not shown) [Compound 63, 4-((9-cyclopentyl-7,7-difluoro-5-methyl-6-oxo-6,7,8,9-tetrahydro-5H-pyrimido[4,5-b][1,4]diazepin-2-yl)amino)-N-(1-(2-(1-(4-((2,6-dioxopiperidin-3-yl)amino)-2,5-difluorophenyl)piperidin-4-yl)ethyl)piperidin-4-yl)-3-methoxybenzamide] | +++ (+++: <0.3) | < 50 nM | < 30 nM | > 10000 nM
CCN1CC(F)(F)C(=O)N(C)c2cnc(Nc3ccc(C(=O)NC4CCN(CCC5CCN(c6cc(F)c(NC7CCC(=O)NC7=O)cc6F)CC5)CC4)cc3OC)nc21 (stereo not shown) [Compound 64, N(1-(2-(1-(4-((2,6-dioxopiperidin-3-yl)amino)-2,5-difluorophenyl)piperidin-4-yl)ethyl)piperidin-4-yl)-4-((9-ethyl-7,7-difluoro-5-methyl-6-oxo-6,7,8,9-tetrahydro-5H-pyrimido[4,5-b][1,4]diazepin-2-yl)amino)-3-methoxybenzamide] | ++ (++: <0.5) | < 30 nM | < 30 nM | > 10000 nM
COc1cc(-c2nnc(CN3CCC(CCN4CCN(c5cc(F)c(NC6CCC(=O)NC6=O)cc5F)CC4)CC3)o2)ccc1Nc1ncc2c(n1)N(C1CCCC1)CC(F)(F)C(=O)N2C (stereo not shown) [Compound 65, 3-((4-(4-(2-(1-((5-(4-((9-cyclopentyl-7,7-difluoro-5-methyl-6-oxo-6,7,8,9-tetrahydro-5H-pyrimido[4,5-b][1,4]diazepin-2-yl)amino)-3-methoxyphenyl)-1,3,4-oxadiazol-2-yl)methyl)piperidin-4-yl)ethyl)piperazin-1-yl)-2,5-difluorophenyl)amino)piperidine-2,6-dione] | ++ (++: <0.5) | < 200 nM | < 100 nM | > 10000 nM
COc1cc(-c2nnc(N3CCC(CCN4CCN(c5cc(F)c(NC6CCC(=O)NC6=O)cc5F)CC4)CC3)o2)ccc1Nc1ncc2c(n1)N(C1CCCC1)CC(F)(F)C(=O)N2C (stereo not shown) [Compound 66, 3-((4-(4-(2-(1-(5-(4-((9-cyclopentyl-7,7-difluoro-5-methyl-6-oxo-6,7,8,9-tetrahydro-5H-pyrimido[4,5-b][1,4]diazepin-2-yl)amino)-3-methoxyphenyl)-1,3,4-oxadiazol-2-yl)piperidin-4-yl)ethyl)piperazin-1-yl)-2,5-difluorophenyl)amino)piperidine-2,6-dione] | ++ (++: <0.5) | < 200 nM | < 200 nM | > 10000 nM
COc1cc(C(=O)NC2CC3(CCN(CC4CCN(c5cc(F)c(NC6CCC(=O)NC6=O)cc5F)CC4)CC3)C2)c(F)cc1Nc1ncc2c(n1)N(C(C)C)CC(F)(F)C(=O)N2C (stereo not shown) [Compound 69, 4-((7,7-difluoro-9-isopropyl-5-methyl-6-oxo-6,7,8,9-tetrahydro-5H-pyrimido[4,5-b][1,4]diazepin-2-yl)amino)-N-(7-((1-(4-((2,6-dioxopiperidin-3-yl)amino)-2,5-difluorophenyl)piperidin-4-yl)methyl)-7-azaspiro[3.5]nonan-2-yl)-2-fluoro-5-methoxybenzamide] | ++ (++: <0.5) | < 50 nM | < 30 nM | > 10000 nM
COc1cc(C(=O)NN2CCC(CCN3CCN(c4ccc(NC5CCC(=O)NC5=O)c(F)c4F)CC3)CC2)ccc1Nc1ncc2c(n1)N(C1CCCC1)CC(F)(F)C(=O)N2C (stereo not shown) [Compound 71, 4-((9-cyclopentyl-7,7-difluoro-5-methyl-6-oxo-6,7,8,9-tetrahydro-5H-pyrimido[4,5-b][1,4]diazepin-2-yl)amino)-N-(4-(2-(4-(4-((2,6-dioxopiperidin-3-yl)amino)-2,3-difluorophenyl)piperazin-1-yl)ethyl)piperidin-1-yl)-3-methoxybenzamide] | +++ (+++: <0.3) | < 30 nM | < 30 nM | > 10000 nM
COc1cc(C(=O)NN2CCC(CCN3CCN(c4cc(C)c(NC5CCC(=O)NC5=O)cc4F)CC3)CC2)ccc1Nc1ncc2c(n1)N(C1CCCC1)CC(F)(F)C(=O)N2C (stereo not shown) [Compound 74, 4-((9-cyclopentyl-7,7-difluoro-5-methyl-6-oxo-6,7,8,9-tetrahydro-5H-pyrimido[4,5-b][1,4]diazepin-2-yl)amino)-N-(4-(2-(4-(4-((2,6-dioxopiperidin-3-yl)amino)-2-fluoro-5-methylphenyl)piperazin-1-yl)ethyl)piperidin-1-yl)-3-methoxybenzamide] | +++ (+++: <0.3) | < 30 nM | < 30 nM | > 10000 nM
COc1cc(C(=O)NN2CCC(CCN3CCN(c4cc(C)c(NC5CCC(=O)NC5=O)cc4F)CC3)CC2)ccc1Nc1ncc2c(n1)N(C(C)C)CC(F)(F)C(=O)N2C (stereo not shown) [Compound 75, 4-((7,7-difluoro-9-isopropyl-5-methyl-6-oxo-6,7,8,9-tetrahydro-5H-pyrimido[4,5-b][1,4]diazepin-2-yl)amino)-N-(4-(2-(4-(4-((2,6-dioxopiperidin-3-yl)amino)-2-fluoro-5-methylphenyl)piperazin-1-yl)ethyl)piperidin-1-yl)-3-methoxybenzamide] | +++ (+++: <0.3) | < 30 nM | < 30 nM | > 10000 nM

Source: patent US20260273072A1, “NOVEL PLK1 DEGRADATION INDUCING COMPOUND” (UPPTHERA, INC., priority 2023, published 2026)
